Assay results taken from ChEMBL document CHEMBL5042529, “One-Pot Enzymatic Synthesis and Biological Evaluation of Ganglioside GM3 Derivatives as Potential Cancer Immunotherapeutics” (J Med Chem, 2022).
Calls of active or inactive are those of the source. The rule behind the calls is not given here.

Key:
B16 [1] = test: Anticancer activity against mouse B16-Luc cells transfected in C57BL/6 mouse assessed as relative tumor weight at 5 mg/kg, ip qd treated for 7 days (reference value: 8 + /- 4.1 g); type: functional; settings: time 7 day
[2] = Downregulation of XIAP gene expression in human A431 cells at 50 uM incubated for 24 hrs by qPCR analysis; type: functional; settings: A-431
B16 [3] = test: Anticancer activity against mouse B16-Luc cells transfected in C57BL/6 mouse assessed as cell atypia in tumor tissue at 5 mg/kg, ip qd treated for 7 days by H and E staining based microscopy; type: functional, organism-based; settings: time 7.0 day
[4] = Apparent volume of distribution in C57BL/6 mouse at 10 mg/kg, iv measured upto 24 hrs; type: ADME, organism-based; settings: in vivo
[5] = Cytotoxicity against human A-431 cells measured after 24 hrs by MTT assay; type: toxicity, cell-based
B16 [6] = test: Anticancer activity against mouse B16-Luc cells transfected in C57BL/6 mouse assessed as cellular debris in tumor tissue at 5 mg/kg, ip qd treated for 7 days by H and E staining based microscopy; type: functional, organism-based; settings: time 7.0 day
Mus musculus [7] = test: Increase in IL-12 expression in C57BL/6 mouse transfected with mouse B16-Luc cells assessed as […] at 5 mg/kg, ip qd treated for 7 days by ELISA; type: functional, organism-based; settings: time 7.0 day
B16 [8] = test: Anticancer activity against mouse B16-Luc cells transfected in BALB/c mouse assessed as relative tumor weight at 5 mg/kg, ip qd treated for 7 days (reference value: 5.3 + /-1.4 g); type: functional; settings: time 7 day
[9] = Cytotoxicity against mouse Neuro2a cells measured after 24 hrs by MTT assay; type: toxicity, cell-based, N2a
[10] = Cytotoxicity against human HeLa cells measured after 24 hrs by MTT assay; type: toxicity, cell-based
A-431 [11] = test: Inhibition of cell invasion in human A-431 cells assessed as inhibition rate at 50 uM incubated for 24 hrs by crystal violet staining based transwell assay; type: functional
Mus musculus [12] = test: Effect on IL-2 expression in BALB/c mouse transfected with mouse B16-Luc cells assessed as serum IL-2 level at 5 mg/kg, ip qd treated for 7 days by ELISA; type: functional, organism-based; settings: time 7.0 day
[13] = Downregulation of HSPG2 gene expression in human A431 cells at 50 uM incubated for 24 hrs by RNA-seq analysis; type: functional; settings: A-431
B16 [14] = test: Anticancer activity against mouse B16-Luc cells transfected in BALB/c mouse assessed as inflammatory cell infiltration in tumor tissue at 5 mg/kg, ip qd treated for 7 days by H and E staining based microscopy; type: functional, organism-based; settings: time 7.0 day
[15] = Cytotoxicity against rat PC-12 cells measured after 24 hrs by MTT assay; type: toxicity, cell-based
[16] = Downregulation of HSPG2 gene expression in human A431 cells at 50 uM incubated for 24 hrs by qPCR analysis; type: functional; settings: A-431
[17] = Downregulation of XIAP gene expression in human A431 cells at 50 uM incubated for 24 hrs by RNA-seq analysis; type: functional; settings: A-431
[18] = Cytotoxicity against CHO cells measured after 24 hrs by MTT assay; type: toxicity, cell-based, Cricetulus griseus; settings: Chinese hamster
B16 [19] = test: Anticancer activity against mouse B16-Luc cells transfected in C57BL/6 mouse assessed as tumor inhibition rate at 5 mg/kg, ip qd treated for 7 days; type: functional; settings: 168 h, time 7 day
Mus musculus [20] = test: Effect on IL-2 expression in C57BL/6 mouse transfected with mouse B16-Luc cells assessed as serum IgG level at 5 mg/kg, ip qd treated for 7 days by ELISA; type: functional, organism-based; settings: time 7.0 day
B16 [21] = test: Anticancer activity against mouse B16-Luc cells transfected in C57BL/6 mouse assessed as inflammatory cell infiltration in tumor tissue at 5 mg/kg, ip qd treated for 7 days by H and E staining based microscopy; type: functional, organism-based; settings: time 7.0 day
[22] = Downregulation of VAVI gene expression in human A431 cells at 50 uM incubated for 24 hrs by RNA-seq analysis; type: functional; settings: A-431
B16 [23] = test: Anticancer activity against mouse B16-Luc cells transfected in BALB/c mouse assessed as nuclear pyknosis in tumor tissue at 5 mg/kg, ip qd treated for 7 days by H and E staining based microscopy; type: functional, organism-based; settings: time 7.0 day
[24] = Reduction of VAVI expression in human A431 cells at 50 uM incubated for 24 hrs by Western blotting analysis; type: functional; settings: A-431
Mus musculus [25] = test: Effect on IgG expression in BALB/c mouse transfected with mouse B16-Luc cells assessed as serum IgG level at 5 mg/kg, ip qd treated for 7 days by ELISA; type: functional, organism-based; settings: time 7.0 day
B16 [26] = test: Anticancer activity against mouse B16-Luc cells transfected in BALB/c mouse assessed as increase in tumor necrotic area at 5 mg/kg, ip qd treated for 7 days by H and E staining based microscopy relative to control; type: functional, organism-based; settings: time 7.0 day
[27] = Half life in C57BL/6 mouse 10 mg/kg, iv measured upto 24 hrs; type: ADME, organism-based; settings: in vivo
[28] = Downregulation of LAMA5 gene expression in human A431 cells at 50 uM incubated for 24 hrs by qPCR analysis; type: functional; settings: A-431
Mus musculus [29] = test: Increase in IL-12 expression in BALB/c mouse transfected with mouse B16-Luc cells assessed as […] at 5 mg/kg, ip qd treated for 7 days by ELISA; type: functional, organism-based; settings: time 7.0 day
A-431 [30] = test: Antimigratory activity in human A-431 cells assessed as inhibition of scratch at 50 uM measured after 24 hrs by Wound healing assay; type: functional; set-up: scale not given: the % may be the effect or the level left
B16 [31] = test: Anticancer activity against mouse B16-Luc cells transfected in C57BL/6 mouse assessed as increase in tumor necrotic area at 5 mg/kg, ip qd treated for 7 days by H and E staining based microscopy relative to control; type: functional, organism-based; settings: time 7.0 day
[32] = Toxicity in BALB/c mouse transfected with mouse B16-Luc cells assessed as behavioral abnormalities at 5 mg/kg, sc qd treated for 7 days; type: organism-based; settings: in vivo, 168 h, time 7 day
[33] = Reduction of integrin beta1 expression in human A431 cells at 50 uM incubated for 24 hrs by Western blotting analysis; type: functional; settings: A-431
B16 [34] = test: Anticancer activity against mouse B16-Luc cells transfected in C57BL/6 mouse assessed as nuclear pyknosis in tumor tissue at 5 mg/kg, ip qd treated for 7 days by H and E staining based microscopy; type: functional, organism-based; settings: time 7.0 day
B16 [35] = test: Anticancer activity against mouse B16-Luc cells transfected in BALB/c mouse assessed as cellular debris in tumor tissue at 5 mg/kg, ip qd treated for 7 days by H and E staining based microscopy; type: functional, organism-based; settings: time 7.0 day
Mus musculus [36] = test: Effect on IL-2 expression in C57BL/6 mouse transfected with mouse B16-Luc cells assessed as serum IL-2 level at 5 mg/kg, ip qd treated for 7 days by ELISA; type: functional, organism-based; settings: time 7.0 day
[37] = Downregulation of LAMA5 gene expression in human A431 cells at 50 uM incubated for 24 hrs by RNA-seq analysis; type: functional; settings: A-431
B16 [38] = test: Anticancer activity against mouse B16-Luc cells transfected in BALB/c mouse assessed as cell atypia in tumor tissue at 5 mg/kg, ip qd treated for 7 days by H and E staining based microscopy; type: functional, organism-based; settings: time 7.0 day
B16 [39] = test: Anticancer activity against mouse B16-Luc cells transfected in BALB/c mouse assessed as tumor inhibition rate at 5 mg/kg, ip qd treated for 7 days; type: functional; settings: 168 h, time 7 day
[40] = Toxicity in C57BL/6 mouse transfected with mouse B16-Luc cells assessed as behavioral abnormalities at 5 mg/kg, sc qd treated for 7 days; type: organism-based; settings: in vivo, 168 h, time 7 day
[41] = Clearance in C57BL/6 mouse at 10 mg/kg, iv measured upto 24 hrs; type: ADME, organism-based; settings: in vivo
[42] = Downregulation of VAVI gene expression in human A431 cells at 50 uM incubated for 24 hrs by qPCR analysis; type: functional; settings: A-431
Mus musculus [43] = test: Effect on IL-2 expression in C57BL/6 mouse transfected with mouse B16-Luc cells assessed as serum […] level at 5 mg/kg, ip qd treated for 7 days by ELISA; type: functional, organism-based; settings: time 7.0 day

CCCCCCCCCCCCC/C=C/[C@@H](O)[C@H](CO[C@@H]1O[C@H](CO)[C@@H](O[C@@H]2O[C@H](CO)[C@H](O)[C@H](O[C@]3(C(=O)O)C[C@H](O)[C@@H](NC(=O)c4cccc(I)c4)[C@H]([C@H](O)[C@H](O)CO)O3)[C@H]2O)[C@H](O)[C@H]1O)NC(=O)CCCCCCCCCCCCCCCCC
Activity (B16 [1]): 4.3 g
inhibition at 50 µM [2]: 46.2%
Activity (B16 [3]): Active
Vd [4]: 2.4 mL/mg
IC50 at 24 h [5]: > 200 µM
Activity (B16 [6]): Active
Activity (Mus musculus [7]): inactive
Activity (B16 [8]): 5.3 g
IC50 at 24 h [9]: > 200 µM
IC50 at 24 h [10]: > 200 µM
inhibition at 50 µM (A-431 [11]): 36.6%
Activity (Mus musculus [12]): inactive
inhibition at 50 µM [13]: 55.2%
Activity (B16 [14]): Active
IC50 at 24 h [15]: > 200 µM
inhibition at 50 µM [16]: 33.4%
inhibition at 50 µM [17]: 52.5%
IC50 at 24 h [18]: > 200 µM
inhibition in vivo at 5 mg/kg (B16 [19]): 46.2%
Activity (Mus musculus [20]): inactive
Activity (B16 [21]): Active
inhibition at 50 µM [22]: 100%
Activity (B16 [23]): Active
inhibition at 50 µM [24]: 14.5%
Activity (Mus musculus [25]): inactive
Activity (B16 [26]): Active
half-life [27]: 56.8 h
inhibition at 50 µM [28]: 54.1%
Activity (Mus musculus [29]): inactive
Activity (A-431 [30]): 46.7%
Activity (B16 [31]): Active
Activity [32]: Non-Toxic
inhibition at 50 µM [33]: 14.7%
Activity (B16 [34]): Active
Activity (B16 [35]): Active
Activity (Mus musculus [36]): inactive
inhibition at 50 µM [37]: 50.8%
Activity (B16 [38]): Active
inhibition in vivo at 5 mg/kg (B16 [39]): 29.2%
Activity [40]: Non-Toxic
CL [41]: 0.483 µL/min/mg
inhibition at 50 µM [42]: 93.4%
Activity (Mus musculus [43]): inactive
